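Test compounds were applied to cells in 96-well plates for 48 hours at 5 doses. GI50 = concentration required for 50% inhibition of growth.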 The source made the active and inactive calls. Rule as the data show it: active = GI50 up to about 1.1 µM and inactive = higher.
Experiments:
Experiment in all cases: NCI-60 cell line screen, 48 h
786-0 = tested on: 786-0
OVCAR-4 = tested on: OVCAR-4
SK-MEL-2 = tested on: SK-MEL-2
MCF7 = tested on: MCF7
HL-60 = tested on: HL-60
HT-29 = tested on: HT-29
K562 = tested on: K562
SNB-75 = tested on: SNB-75
Malme-3M = tested on: Malme-3M
SK-MEL-5 = tested on: SK-MEL-5
SK-MEL-28 = tested on: SK-MEL-28
RPMI-8226 = tested on: RPMI-8226
CAKI-1 = tested on: CAKI-1
CCRF-CEM = tested on: CCRF-CEM
HCT-116 = tested on: HCT-116
MDA-MB-231 = tested on: MDA-MB-231
SF-539 = tested on: SF-539
SK-OV-3 = tested on: SK-OV-3
SNB-19 = tested on: SNB-19
UO-31 = tested on: UO-31
NCI-H226 = tested on: NCI-H226
SW-620 = tested on: SW-620
SF-295 = tested on: SF-295
U-251 = tested on: U-251
MDA-N = tested on: MDA-N
IGROV-1 = tested on: IGROV-1
ACHN = tested on: ACHN
SN12C = tested on: SN12C
NCI-H460 = tested on: NCI-H460
A498 = tested on: A498
NCI-H522 = tested on: NCI-H522
T47D = tested on: T47D
UACC-257 = tested on: UACC-257
RXF 393 = tested on: RXF 393
COLO 205 = tested on: COLO 205
LOX IMVI = tested on: LOX IMVI
HCT-15 = tested on: HCT-15
KM12 = tested on: KM12
MDA-MB-435 = tested on: MDA-MB-435
SF-268 = tested on: SF-268
EKVX = tested on: EKVX
PC-3 = tested on: PC-3
NCI-H23 = tested on: NCI-H23
DU-145 = tested on: DU-145
HOP-92 = tested on: HOP-92
HCC 2998 = tested on: HCC 2998
SR = tested on: SR
OVCAR-3 = tested on: OVCAR-3
OVCAR-8 = tested on: OVCAR-8
OVCAR-5 = tested on: OVCAR-5
Hs-578T = tested on: Hs-578T
TK-10 = tested on: TK-10
NCI/ADR-RES = tested on: NCI/ADR-RES
MOLT-4 = tested on: MOLT-4
A549 = tested on: A549
BT-549 = tested on: BT-549
UACC-62 = tested on: UACC-62
HOP-62 = tested on: HOP-62
M14 = tested on: M14

For `Nc1nc(Cl)c(C=O)c(NCC2(CO)CCC2)n1`, the GI50 (786-0) was 76 µM (inactive), the GI50 (OVCAR-4) was 14.3 µM (inactive) and the GI50 (SK-MEL-2) was 14.5 µM (inactive). For the same molecule, the GI50 (MCF7) was > 100 µM (inactive), the GI50 (HL-60) was 4.5 µM (inactive) and the GI50 (HT-29) was 31.4 µM (inactive). The GI50 (K562) was 3.83 µM (inactive), the GI50 (SNB-75) was 24 µM (inactive) and the GI50 (Malme-3M) was 43.1 µM (inactive). For the same molecule, the GI50 (SK-MEL-5) was 14.5 µM (inactive), the GI50 (SK-MEL-28) was 34.8 µM (inactive) and the GI50 (RPMI-8226) was 39.7 µM (inactive). The GI50 (CAKI-1) was 13.6 µM (inactive), the GI50 (CCRF-CEM) was 12.9 µM (inactive) and the GI50 (HCT-116) was 17.7 µM (inactive). For the same molecule, the GI50 (MDA-MB-231) was 22.9 µM (inactive), the GI50 (SF-539) was 32.7 µM (inactive) and the GI50 (SK-OV-3) was 27.2 µM (inactive). The GI50 (SNB-19) was 17.1 µM (inactive), the GI50 (UO-31) was 21.8 µM (inactive) and the GI50 (NCI-H226) was 15.4 µM (inactive). For the same molecule, the GI50 (SW-620) was 28.2 µM (inactive), the GI50 (SF-295) was 22.8 µM (inactive) and the GI50 (U-251) was 15.2 µM (inactive). The GI50 (MDA-N) was 21.3 µM (inactive), the GI50 (IGROV-1) was 12.3 µM (inactive) and the GI50 (ACHN) was 37.8 µM (inactive). For the same molecule, the GI50 (SN12C) was 45.2 µM (inactive), the GI50 (NCI-H460) was 31 µM (inactive) and the GI50 (A498) was 25.1 µM (inactive). For the same molecule, the GI50 (NCI-H522) was 3.56 µM (inactive), the GI50 (T47D) was 33.7 µM (inactive) and the GI50 (UACC-257) was 24.8 µM (inactive). The GI50 (RXF 393) was 17.8 µM (inactive), the GI50 (COLO 205) was 25.7 µM (inactive) and the GI50 (LOX IMVI) was 12.4 µM (inactive). The GI50 (HCT-15) was 11.8 µM, the GI50 (KM12) was 43.1 µM (inactive) and the GI50 (MDA-MB-435) was 28.8 µM (inactive). For the same molecule, the GI50 (SF-268) was 16.6 µM (inactive), the GI50 (EKVX) was 17.6 µM (inactive) and the GI50 (PC-3) was 17.7 µM (inactive). The GI50 (NCI-H23) was 26.4 µM (inactive), the GI50 (DU-145) was 31.1 µM (inactive) and the GI50 (HOP-92) was 15.3 µM (inactive). For the same molecule, the GI50 (HCC 2998) was 9.48 µM (inactive), the GI50 (SR) was 3.21 µM (inactive) and the GI50 (OVCAR-3) was 17.5 µM (inactive). For the same molecule, the GI50 (OVCAR-8) was 15 µM (inactive), the GI50 (OVCAR-5) was > 100 µM (inactive) and the GI50 (Hs-578T) was 22.2 µM (inactive). For the same molecule, the GI50 (TK-10) was > 100 µM (inactive), the GI50 (NCI/ADR-RES) was 40 µM (inactive) and the GI50 (MOLT-4) was 18.3 µM (inactive). For the same molecule, the GI50 (A549) was 91.6 µM (inactive), the GI50 (BT-549) was 28.6 µM (inactive) and the GI50 (UACC-62) was 14.3 µM (inactive). The GI50 (HOP-62) was 25.4 µM (inactive) and the GI50 (M14) was 26.5 µM (inactive).

For `COP(=O)(OC)/C(=C/c1c[nH]c2ccccc12)C(=O)O`, the GI50 (786-0) was > 100 µM (inactive), the GI50 (OVCAR-4) was > 100 µM (inactive) and the GI50 (SK-MEL-2) was > 100 µM (inactive). For the same molecule, the GI50 (MCF7) was > 100 µM (inactive), the GI50 (HL-60) was > 100 µM (inactive) and the GI50 (HT-29) was > 100 µM (inactive). For the same molecule, the GI50 (K562) was > 100 µM (inactive), the GI50 (SNB-75) was > 100 µM (inactive) and the GI50 (Malme-3M) was > 100 µM (inactive). The GI50 (SK-MEL-5) was > 100 µM (inactive), the GI50 (SK-MEL-28) was > 100 µM (inactive) and the GI50 (RPMI-8226) was > 100 µM (inactive). For the same molecule, the GI50 (CAKI-1) was > 100 µM (inactive), the GI50 (CCRF-CEM) was > 100 µM (inactive) and the GI50 (HCT-116) was > 100 µM (inactive). For the same molecule, the GI50 (MDA-MB-231) was > 100 µM (inactive), the GI50 (SF-539) was > 100 µM (inactive) and the GI50 (SK-OV-3) was > 100 µM (inactive). The GI50 (SNB-19) was > 100 µM (inactive), the GI50 (UO-31) was > 100 µM (inactive) and the GI50 (NCI-H226) was > 100 µM (inactive). For the same molecule, the GI50 (SW-620) was > 100 µM (inactive), the GI50 (SF-295) was > 100 µM (inactive) and the GI50 (U-251) was > 100 µM (inactive). For the same molecule, the GI50 (MDA-N) was > 100 µM (inactive), the GI50 (IGROV-1) was > 100 µM (inactive) and the GI50 (ACHN) was > 100 µM (inactive). For the same molecule, the GI50 (SN12C) was > 100 µM (inactive), the GI50 (NCI-H460) was > 100 µM (inactive) and the GI50 (A498) was > 100 µM (inactive). For the same molecule, the GI50 (NCI-H522) was > 100 µM (inactive), the GI50 (T47D) was > 100 µM (inactive) and the GI50 (RXF 393) was > 100 µM (inactive). The GI50 (COLO 205) was > 100 µM (inactive), the GI50 (LOX IMVI) was > 100 µM (inactive) and the GI50 (HCT-15) was over 100 µM. The GI50 (KM12) was > 100 µM (inactive), the GI50 (MDA-MB-435) was > 100 µM (inactive) and the GI50 (EKVX) was > 100 µM (inactive). For the same molecule, the GI50 (PC-3) was > 100 µM (inactive), the GI50 (NCI-H23) was > 100 µM (inactive) and the GI50 (DU-145) was > 100 µM (inactive). For the same molecule, the GI50 (HOP-92) was > 100 µM (inactive), the GI50 (HCC 2998) was > 100 µM (inactive) and the GI50 (SR) was > 100 µM (inactive). The GI50 (OVCAR-3) was > 100 µM (inactive), the GI50 (OVCAR-8) was > 100 µM (inactive) and the GI50 (OVCAR-5) was > 100 µM (inactive). For the same molecule, the GI50 (Hs-578T) was > 100 µM (inactive), the GI50 (TK-10) was > 100 µM (inactive) and the GI50 (NCI/ADR-RES) was > 100 µM (inactive). For the same molecule, the GI50 (MOLT-4) was > 100 µM (inactive), the GI50 (A549) was > 100 µM (inactive) and the GI50 (BT-549) was > 100 µM (inactive). The GI50 (UACC-62) was > 100 µM (inactive), the GI50 (HOP-62) was > 100 µM (inactive) and the GI50 (M14) was > 100 µM (inactive).

From ChEMBL document CHEMBL1201862, “PubChem BioAssay data set” (2004)
